# Test system: cysteines in HEK293T cell lysates
# Assay: competitive ABPP workflow with DADPS capture reagents
# Format: biochemical
# Text: To obtain an isotopically enriched DADPS capture reagent, the synthesis and application of heavy L-valine (^13C5 ^15N)— containing reagent NBIV-010 was focused on, as the relatively large +6 Da mass difference is ideal for MS1-based quantification. Further motivating the isotopic reagent design, a +6-mass difference is used in isoTOP-ABPP and isoDTB reagents together with the previously reported heavy and light azido-biotin reagents, which was envisioned could facilitate head-to-head comparisons. Using the same synthetic strategy, heavy reagent NBIV-010 was obtained in 58% yield. […] These reagents in a were further validated in a competitive ABPP workflow. Using HEK293T cell lysates, samples were subjected to either vehicle, DMSO, or 500 μM KB02. Upon labeling with IAA and clicking the samples with either heavy or light DADPS probe (NBIV-010 or NBIV-009, respectively; FIG. 4B) or heavy or light biotin azide, the samples were subjected to SP3 cleanup. After enrichment with either streptavidin resin, for DADPS labeled peptides, or NeutrAvidin resin, for biotin azide labeled peptides, the peptides were cleaved or eluted off resin, respectively, and analyzed by LC-MS/MS. […]
compound,measurement,setting,value
COc1ccc2c(c1)CCCN2C(=O)CCl [KB02],cysteines with ratios>2 shared by DADPS and biotin azide datasets (high confidence KB02-labeled sites),500 μM KB02,163
same,cysteines found in peptides with Log2 MS1 extracted ion chromatograph area ratios>2 (cysteines modified by KB02; ligandable cysteines),"500 μM KB02 vs DMSO, heavy/light DADPS probes NBIV-010/NBIV-009, three biological replicates",404
